In patent US5622933A, “Multiple branch peptide constructions for use against HIV” (priority 1993, dated 1997):
Where two headings read alike, the source gives them in different places. Ends that are not written are not given here.

Assays:
GalCer receptor = test: Binding of gp120 to GalCer (HPTLC binding assay)
Experimental: In another experiment with the same MBPCs, the effect of MBPCs on the binding of gp120 to GalCer was analyzed using a high performance thin layer chromatography (HPTLC) binding assay. MBPCs (10^-4 M) were preincubated with GalCer for 1 hour at room temperature. After thorough washing, the HPTLC plates were incubated with HIV-1 recombinant gp120 (2.5 ug/ml) followed by rabbit anti-gp120 and ^125 I-goat anti-rabbit IgG. The plates were washed in PBS and exposed to Amersham Hyperfilm MP for 8 hours. As shown in FIG. 5B treatment of HT-29 cells with active MBPCs protected the cells from infection by HIV-1 (NDK isolate). This antiviral effect was correlated with its ability to block the binding of gp120 to GalCer.

HIV [1] = test: Infection of HT-29 human colon cells through the GalCer receptor; format: cell-based
Experimental: The activity of MBPCs was evaluated on this alternative infection route as follows: HT-29 cells (5×10^5 cells) were incubated with MBPCs (5×10^-6 M) for 45 minutes and subsequently exposed to 100 TCID50 of HIV-1 (LAI), HIV-1 (NDK) or HIV-2 (ROD) for 1 hour at 37° C. The residual inoculum was inactivated by three successive trypsinations and infection was assessed by: i) direct measurement of HIV-1 p24^gag (for HIV-1 isolates) and RT activity (for HIV-1 and HIV-2 isolates) in the culture supernatants; ii) co-cultivation with human PBLs. The cells were treated with the MBPCs as follows: 1- none; 2- [GPGRAF]8 -MLC; 3- [GPGRAF]8 -MLCD; 4- [GPG(R)DAF]8 -MLC; 5- [GPGRAF]16 -MLC; 6- [[…]]4 -MLC; and 7- [[…]]4 -MLC, with all amino acids in L form unless noted otherwise. The results shown in FIG. 5A, which correspond to infection with HIV-1 (NDK), are representative of three separate experiments and the MBPC used is indicated by the number on the x-axis. The concentration of p24^gag (pg/ml) was measured during the co-culture experiment with PBLs (+++, >10 ng/ml 10 days post-infection; ++, >1 ng/ml 13 days post-infection; +, >1 ng/ml 16 days post-infection; -, no detectable p24^gag 1 month post-infection). Similar results were obtained with HIV-1 (LAI) and HIV-2 (ROD).

HIV [2] = test: Inhibition of syncytia formation induced by HIV (summary statements); format: cell-based
Experimental: (§1) CEM or C8166 cells were chronically infected with HIV-1 Lai or HIV-2 Rod, or HIV-1MN, respectively. Infected cells (1×10^4) were incubated for 2 hours with various concentrations of MBPCs in 96-well plates. Uninfected Molt-4 cells (4×10^4) were then added in […]. Syncytia were counted after 18 hours at 37° C.

HIV-1 (IIIB) = format: cell-based; conditions: 24 hours
Source text: 50×10^3 8E5 cells chronically infected with a RT-deficient HIV-I (IIIB) isolate, were co-cultivated with 150×10^3 phytohemagglutinin (PHA) stimulated human peripheral blood lymphocytes (PBLs) in the presence of the indicated peptide in 96-well plates. The MBPCs used are described by the peptides attached, and the number thereof, to a core lysine matrix, which is designated HLC. All amino acids used for this experiment were in dextro form.

8E5 cells = test: Toxicity in the cell fusion test (MTT assay or trypan blue exclusion); format: cell-based; conditions: 5 × 10^-5 M
HIV-1Lai = test: Syncytia formation blockage (chronically infected cells + uninfected Molt-4 cells); format: cell-based; set-up: key: -: The presence of syncytia is indicated by + signs, allocated in approximate proportion to the quantities counted; The presence of syncytia is indicated by + signs, allocated in approximate proportion to the quantities counted; ++: The presence of syncytia is indicated by + signs, allocated in approximate proportion to the quantities counted; +++: The presence of syncytia is indicated by + signs, allocated in approximate proportion to the quantities counted; ++++: The presence of syncytia is indicated by + signs, allocated in approximate proportion to the quantities counted
Experimental: as §1

HIV-1MN = test: as above; format: cell-based; set-up: key: -: The presence of syncytia is indicated by + signs, allocated in approximate proportion to the quantities counted; The presence of syncytia is indicated by + signs, allocated in approximate proportion to the quantities counted; ++: The presence of syncytia is indicated by + signs, allocated in approximate proportion to the quantities counted; +++: The presence of syncytia is indicated by + signs, allocated in approximate proportion to the quantities counted; ++++: The presence of syncytia is indicated by + signs, allocated in approximate proportion to the quantities counted
Experimental: as §1

HIV-2Rod = test: as above; format: cell-based; set-up: key: -: The presence of syncytia is indicated by + signs, allocated in approximate proportion to the quantities counted; The presence of syncytia is indicated by + signs, allocated in approximate proportion to the quantities counted; ++: The presence of syncytia is indicated by + signs, allocated in approximate proportion to the quantities counted; +++: The presence of syncytia is indicated by + signs, allocated in approximate proportion to the quantities counted; ++++: The presence of syncytia is indicated by + signs, allocated in approximate proportion to the quantities counted
Experimental: as §1

HIV-1 (89.6) = test: Infection of and syncytia formation in human primary macrophages; format: cell-based; conditions: 5×10^-5 M; 10,000 TCID50
Experimental: MBPCs were also evaluated for their ability to block the infection of human primary macrophages by a highly cytopathic macrophage-tropic isolate, HIV-1 (89.6). Mononuclear cells were isolated from leukophoresis units enriched for monocytes by Ficoll-Hypaque density separation. Macrophages were purified by adherence to plastic in RPMI 1640 supplemented with 10% fetal calf serum and 5% human AB serum. […] 5×10^5 cells were treated for 45 minutes with the indicated MBPC at concentrations of 5×10^-5 M and subsequently exposed to 10,000 TCID50 of the macrophage-tropic isolate HIV (89.6). […] After thorough washing, the cells were fed again with medium and analyzed for HIV-1 p24^gag production and syncytia formation 4 days post-infection.

## (GPGRAF)16 -(K)8 -(K)4 -(K)2 -K-βA-OH [MBPC.12]
GalCer receptor
  binding to / activity on the Galactosyl Ceramide receptor: bind to the second receptor
HIV [1]
  block of the infectivity of HIV on human colon cells: completely block
HIV [2]
  MBPC concentration with which inhibiting effect on syncytia formation was observed in vitro: around 10^-6 M
  inhibiting effect on syncytia formation, in words: results similar to those of MBPC.3

## [RKSIHTGPGRAFYT]4 -MLC (also: tetrameric multibranched MLC construct)
HIV-1 (IIIB); 5 × 10^-6 M
  number of syncytia (HIV-1 induced cell fusion): - (- indicates the total absence of syncytia in the well)
HIV-1 (IIIB); 5 × 10^-7 M
  number of syncytia (HIV-1 induced cell fusion): +++
8E5 cells
  Toxicity: Toxic

## (IGPGRAF)4 -(K)2 -K-βA-OH (also: four copies on lysine core (K)2-K-βA-OH) [MBPC.4]
HIV-1Lai; MBPC Conc. 5 × 10^-6 M
  Syncytia formation: +++
HIV-1Lai; MBPC Conc. 10^-6 M
  Syncytia formation: ++++
HIV-1Lai; MBPC Conc. 10^-7 M
  Syncytia formation: ++++
HIV-1MN; MBPC Conc. 5 × 10^-6 M
  Syncytia formation: ++++
HIV-1MN; MBPC Conc. 10^-6 M
  Syncytia formation: ++++
HIV-1MN; MBPC Conc. 10^-7 M
  Syncytia formation: +++
HIV-2Rod; MBPC Conc. 5 × 10^-6 M
  Syncytia formation: ++++
HIV-2Rod; MBPC Conc. 10^-6 M
  Syncytia formation: ++++
HIV-2Rod; MBPC Conc. 10^-7 M
  Syncytia formation: ++++

## [RKSIHKGPGRAFYT]4 -MLC (also: tetrameric multibranched MLC construct)
HIV-1 (IIIB); 5 × 10^-6 M
  number of syncytia (HIV-1 induced cell fusion): - (- indicates the total absence of syncytia in the well)
HIV-1 (IIIB); 5 × 10^-7 M
  number of syncytia (HIV-1 induced cell fusion): +++
8E5 cells
  Toxicity: Toxic

## [GPGRAF]8 -MLCD
HIV-1 (IIIB); 5 × 10^-5 M
  number of syncytia (HIV-1 induced cell fusion): +++
HIV-1 (IIIB); 5 × 10^-6 M
  number of syncytia (HIV-1 induced cell fusion): +++
HIV-1 (IIIB); 5 × 10^-7 M
  number of syncytia (HIV-1 induced cell fusion): +++
HIV-1 (89.6)
  inhibition of macrophage infection, in words: significantly less active than [GPGRAF]8 -MLC

## [GPG(R)D AF]8 -MLC
HIV-1 (IIIB); 5 × 10^-6 M
  number of syncytia (HIV-1 induced cell fusion): - (- indicates the total absence of syncytia in the well)
HIV-1 (IIIB); 5 × 10^-7 M
  number of syncytia (HIV-1 induced cell fusion): +++
HIV-1 (89.6)
  inhibition of macrophage infection, in words: significantly less active than [GPGRAF]8 -MLC
